Inconclusive results and toxic doses are left out. No stated cut-off is given here; in the data, active means T/C of 150% or more; inactive means T/C below 125%.
Test system: L1210 leukemia ip in BDF1 mice, survival T/C
Test: NCI In Vivo Anticancer Drug Screen. Data for tumor model L1210 Leukemia (intraperitoneal) in B6D2F1 (BDF1) mice
Settings: endpoint: mean survival time, higher = longer survival
Outline: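 Each compound was tested against a transplantable tumor grown in mice. The endpoint was survival, with treated animals benchmarked against vehicle controls as a simple ratio.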

[1] = dose: 100.0 mg/kg/injection, schedule: Q04DX003 (ip), vehicle: saline with Tween-80
[2] = dose: 200.0 mg/kg/injection, schedule: Q04DX003 (ip), vehicle: saline with Tween-80
[3] = dose: 400.0 mg/kg/injection, schedule: Q04DX003 (ip), vehicle: saline with Tween-80
[4] = dose: 100.0 mg/kg/injection, schedule: Q01DX009 (ip), vehicle: saline with Tween-80
[5] = dose: 200.0 mg/kg/injection, schedule: Q01DX009 (ip), vehicle: saline with Tween-80
[6] = dose: 400.0 mg/kg/injection, schedule: Q01DX009 (ip), vehicle: saline with Tween-80
[7] = dose: 100.0 mg/kg/injection, schedule: Q01DX009 (ip), vehicle: Klucel (hydroxypropylcellulose) (HPC)
[8] = dose: 200.0 mg/kg/injection, schedule: Q01DX009 (ip), vehicle: Klucel (hydroxypropylcellulose) (HPC)
[9] = dose: 400.0 mg/kg/injection, schedule: Q01DX009 (ip), vehicle: Klucel (hydroxypropylcellulose) (HPC)
[10] = dose: 100.0 mg/kg/injection, schedule: Q04DX002 (ip), vehicle: saline with Tween-80
[11] = dose: 200.0 mg/kg/injection, schedule: Q04DX002 (ip), vehicle: saline with Tween-80
[12] = dose: 400.0 mg/kg/injection, schedule: Q04DX002 (ip), vehicle: saline with Tween-80
[13] = dose: 100.0 mg/kg/injection, schedule: Q04DX003 (ip), vehicle: Klucel (hydroxypropylcellulose) (HPC)
[14] = dose: 200.0 mg/kg/injection, schedule: Q04DX003 (ip), vehicle: Klucel (hydroxypropylcellulose) (HPC)
[15] = dose: 400.0 mg/kg/injection, schedule: Q04DX003 (ip), vehicle: Klucel (hydroxypropylcellulose) (HPC)

Measured: T/C

CN1CCCN(C(=S)S)CC1
inactive: dose: 30.0 mg/kg/injection, schedule: Q01DX001 (ip), vehicle: saline 96 % of control | dose: 100.0 mg/kg/injection, schedule: Q01DX001 (ip), vehicle: saline 95 % of control

Cc1ccc(C(C)(CCC(=O)O)c2ccc(C)o2)o1
inactive: [1] 96 % of control | [2] 96 % of control | [3] 95 % of control

COc1cccc(OC)c1OC(=O)NS(=O)(=O)c1ccc(Cl)cc1
inactive: [4] 116 % of control | [1] 104 % of control | [5] 98 % of control | [2] 97 % of control | [6] 106 % of control | [3] 103 % of control

CCOC(=O)c1ccc(NC(=O)Nc2ccccc2C(=O)OC)cc1
inactive: [7] 110 % of control | [8] 100 % of control | [9] 94 % of control

CCc1ccc2c(-c3ccccc3)ccc3c2c1C(=O)c1ccccc1-3
inactive: [10] 94 % of control | [11] 88 % of control | [12] 91 % of control

CC(=O)c1ccccc1O.CO.CO.[Cl][Nb][Cl]
inactive: dose: 75.0 mg/kg/injection, schedule: Q01DX001 (ip), vehicle: saline 93 % of control | dose: 150.0 mg/kg/injection, schedule: Q01DX001 (ip), vehicle: saline 90 % of control | dose: 300.0 mg/kg/injection, schedule: Q01DX001 (ip), vehicle: saline 90 % of control

C[N+]1(C)CCS(=O)(=O)CC1
inactive: dose: 100.0 mg/kg/injection, schedule: Q04DX002 (ip), vehicle: Klucel (hydroxypropylcellulose) (HPC) 104 % of control | dose: 200.0 mg/kg/injection, schedule: Q04DX002 (ip), vehicle: Klucel (hydroxypropylcellulose) (HPC) 110 % of control

CSc1ncnc2c1ncn2CC(=O)C1CCC2C3CCC4=CC(=O)CCC4(C)C3CCC12C (stereo unspecified)
inactive: dose: 100.0 mg/kg/injection, schedule: Q01DX001 (sc), vehicle: steriod suspending solution 99 % of control | dose: 200.0 mg/kg/injection, schedule: Q01DX001 (sc), vehicle: steriod suspending solution 100 % of control | dose: 400.0 mg/kg/injection, schedule: Q01DX001 (sc), vehicle: steriod suspending solution 99 % of control

CCOc1ccc(C(=O)Nc2c(C)cc(C)cc2C)cc1
inactive: [4] 96 % of control | [1] 100 % of control | [5] 96 % of control | [2] 93 % of control | [6] 101 % of control | [3] 94 % of control

CN(C)CCCN1CCC2(CC[C@H]3CCCC[C@@H]3C2)CC1
inactive: dose: 9.0 mg/kg/injection, schedule: Q01DX015 (ip), vehicle: saline 91 % of control | dose: 18.0 mg/kg/injection, schedule: Q01DX015 (ip), vehicle: saline 97 % of control | dose: 25.0 mg/kg/injection, schedule: Q01DX009 (ip), vehicle: saline 101 % of control | dose: 25.0 mg/kg/injection, schedule: Q04DX003 (ip), vehicle: saline 90 % of control | dose: 36.0 mg/kg/injection, schedule: Q01DX015 (ip), vehicle: saline 101 % of control | dose: 50.0 mg/kg/injection, schedule: Q01DX009 (ip), vehicle: saline 101 % of control | dose: 50.0 mg/kg/injection, schedule: Q04DX003 (ip), vehicle: saline 93 % of control | dose: 72.0 mg/kg/injection, schedule: Q01DX015 (ip), vehicle: saline 114 % of control | dose: 100.0 mg/kg/injection, schedule: Q01DX009 (ip), vehicle: saline 109 % of control | dose: 100.0 mg/kg/injection, schedule: Q04DX003 (ip), vehicle: saline 104 % of control

CCOP(=S)(OCC)S/C(C(=O)NC)=C(/C)O
inactive: dose: 6.25 mg/kg/injection, schedule: Q01DX009 (ip), vehicle: Klucel (hydroxypropylcellulose) (HPC) 94 % of control | dose: 12.5 mg/kg/injection, schedule: Q01DX009 (ip), vehicle: Klucel (hydroxypropylcellulose) (HPC) 97 % of control | dose: 100.0 mg/kg/injection, schedule: Q04DX003 (sc), vehicle: olive oil, sesame oil, peanut oil 103 % of control | dose: 200.0 mg/kg/injection, schedule: Q04DX003 (sc), vehicle: olive oil, sesame oil, peanut oil 106 % of control

CCC1(O)C(=O)OCc2c1cc(C(=O)OC)n(C)c2=O (stereo unspecified)
inactive: dose: 25.0 mg/kg/injection, schedule: Q01DX001 (ip), vehicle: saline with Tween-80 97 % of control | dose: 50.0 mg/kg/injection, schedule: Q01DX001 (ip), vehicle: saline with Tween-80 95 % of control | dose: 100.0 mg/kg/injection, schedule: Q01DX001 (ip), vehicle: saline with Tween-80 97 % of control | dose: 200.0 mg/kg/injection, schedule: Q01DX001 (ip), vehicle: saline with Tween-80 98 % of control

CCNC(=S)S.[Zn+2]
inactive: dose: 1.0 mg/kg/injection, schedule: Q01DX015 (ip), vehicle: saline 102 % of control | dose: 2.0 mg/kg/injection, schedule: Q01DX015 (ip), vehicle: saline 100 % of control | dose: 4.0 mg/kg/injection, schedule: Q01DX015 (ip), vehicle: saline 102 % of control | dose: 8.0 mg/kg/injection, schedule: Q01DX015 (ip), vehicle: saline 108 % of control | dose: 10.0 mg/kg/injection, schedule: Q01DX001 (ip), vehicle: carboxymethylcellulose (CMC) 95 % of control | dose: 20.0 mg/kg/injection, schedule: Q01DX001 (ip), vehicle: carboxymethylcellulose (CMC) 97 % of control | dose: 40.0 mg/kg/injection, schedule: Q01DX001 (ip), vehicle: carboxymethylcellulose (CMC) 95 % of control | dose: 80.0 mg/kg/injection, schedule: Q01DX001 (ip), vehicle: carboxymethylcellulose (CMC) 97 % of control

O=C(CNCc1ccccc1)Oc1c(Cl)c(Cl)c(Cl)c(Cl)c1Cl
inactive: dose: 100.0 mg/kg/injection, schedule: Q04DX003 (ip), vehicle: other 94 % of control | dose: 200.0 mg/kg/injection, schedule: Q04DX003 (ip), vehicle: other 93 % of control

CCCCC(=O)OC1CC2CCC1(C)C2(C)C (stereo unspecified)
inactive: [7] 102 % of control | [13] 96 % of control | [8] 102 % of control | [14] 96 % of control | [9] 104 % of control | [15] 100 % of control

COC(OC)c1nc(N)nc(N)c1-c1ccccc1
inactive: dose: 100.0 mg/kg/injection, schedule: Q01DX008 (ip), vehicle: Klucel (hydroxypropylcellulose) (HPC) 108 % of control | [13] 103 % of control | [14] 95 % of control | [15] 94 % of control

CCN1CC2C3CCC(C)(O3)C2C1 (stereo unspecified)
inactive: dose: 44.0 mg/kg/injection, schedule: Q01DX Z (ip), vehicle: methylcellulose (MC) 100 % of control | dose: 66.0 mg/kg/injection, schedule: Q01DX Z (ip), vehicle: methylcellulose (MC) 92 % of control | dose: 100.0 mg/kg/injection, schedule: Q01DX Z (ip), vehicle: methylcellulose (MC) 98 % of control

Nc1ncnc2c(C(=O)O)c[nH]c12
inactive: dose: 100.0 mg/kg/injection, schedule: Q01DX001 (ip), vehicle: other 98 % of control | dose: 200.0 mg/kg/injection, schedule: Q01DX001 (ip), vehicle: other 110 % of control | dose: 400.0 mg/kg/injection, schedule: Q01DX001 (ip), vehicle: other 111 % of control

CC(=O)OC1CCC2(C)C(=CC=C3C2=CCC2(C)C(=O)CCC32)C1 (stereo unspecified)
inactive: dose: 50.0 mg/kg/injection, schedule: Q01DX009 (ip), vehicle: saline with Tween-80 87 % of control | [4] 90 % of control | [5] 90 % of control

CC(O)(C(=O)O)C(O)C(O)CO (stereo unspecified)
inactive: [10] 100 % of control | [11] 88 % of control | [12] 100 % of control

From PubChem BioAssay AID248 (DTP/NCI, 2004)
